This is an account of results in US20250228937A1, “MEDICAMENT FOR TREATMENT AND/OR PREVENTION OF CANCER” (TORAY INDUSTRIES, INC., priority 2021, published 2025).

Assay [1] concerns human breast cancer cells BT474. Kind of assay: In vivo antitumor effect of anti-CAPRIN-1 antibody and etoposide in BT474 cancer-bearing mice (Comparative Example 1). Also noted: species or system NOD-SCID mice. Particulars: etoposide alone, four times, day 55 after bearing cancer. On the procedure: Next, an in vivo antitumor effect in a cancer-bearing mouse by a combined use of the anti-CAPRIN-1 antibody (anti-CAPRIN-1 humanized antibody #1) produced in Example 1 and etoposide (a topoisomerase inhibitor (topoisomerase II inhibitor) other than topotecan) was evaluated.
Specifically, the antitumor effect of the combination of the anti-CAPRIN-1 antibody and etoposide was studied using NOD-SCID mice in which human-derived cancer cells expressing CAPRIN-1 protein were subcutaneously transplanted. Human breast cancer cells BT474 were subcutaneously transplanted at 2×10^7 cells per mouse as a mixture with Matrigel (Sigma) and allowed to grow until a tumor became approximately 190 to 192 mm^3 to prepare cancer-bearing mice. […]
For a comparative control group, the same dose of the same anti-CAPRIN-1 antibody as above was administered once a week to cancer-bearing mice. […] After the start of administration, the sizes of cancers in the cancer-bearing mice were measured over time using calipers. The tumor volume of each individual was calculated according to a standard method using a calculation formula: (Length of the major axis of the tumor)×(Length of the minor axis of the tumor)^2×0.5, and the average of the treated group was calculated.

Assay [2] has the same test system. The assay is described as follows: In vivo antitumor effect of anti-CAPRIN-1 antibody and topotecan in BT474 cancer-bearing mice. The arrangement: species or system NOD-SCID mice. As to conditions: day 56 after bearing cancer; for tumor volume, assuming that the tumor volume of the negative control was 100%: topotecan alone, four times. The method, then:
An in vivo antitumor effect in a cancer-bearing mouse by a combined use of the anti-CAPRIN-1 antibody (anti-CAPRIN-1 humanized antibody #1) produced in Example 1 and topotecan was evaluated.
Specifically, the antitumor effect of the combined use of the anti-CAPRIN-1 antibody and topotecan according to the present invention was studied using NOD-SCID mice in which human-derived cancer cells expressing CAPRIN-1 protein were subcutaneously transplanted. Human breast cancer cells BT474 were subcutaneously transplanted at 2×10^7 cells per mouse as a mixture with Matrigel (Sigma) and allowed to grow until a tumor became approximately 154 to 155 mm^3 to prepare cancer-bearing mice. The cancer cells BT474 express CAPRIN-1 protein on cell membrane surfaces, and the anti-CAPRIN-1 antibodies produced in Example 1 were confirmed to react with a portion of CAPRIN-1 present on the cell membrane surfaces. Each anti-CAPRIN-1 antibody produced in Example 1 was administered at 10 mg/kg once a week, four times in total, to the tail veins of eight cancer-bearing mice described above. To the same mice, a low dose (3 mg/kg) or a high dose (10 mg/kg) of topotecan was administered once every four days, four times in total.
For a comparative control group, the same dose of the same anti-CAPRIN-1 antibody as above was administered once a week to cancer-bearing mice. Furthermore, for another comparative control group, a low dose (3 mg/kg) or a high dose (10 mg/kg) of topotecan was administered to other cancer-bearing mouse individuals at the same administration intervals. Cancer-bearing mice in a non-treatment group were used as negative controls. After the start of administration, the sizes of cancers in the cancer-bearing mice were measured over time using calipers. The tumor volume of each individual was calculated according to a standard method using a calculation formula: (Length of the major axis of the tumor)×(Length of the minor axis of the tumor)^2×0.5, and the average of the treated group was calculated.

The conditions of assay [3]: platinum-insensitive patient, cited from earlier work.
In a further assay the target is T1, CAPRIN-1 protein (Homo sapiens, UniProt Q14444).
T1 construct: made in house
T1 sequence (Q14444 1-709): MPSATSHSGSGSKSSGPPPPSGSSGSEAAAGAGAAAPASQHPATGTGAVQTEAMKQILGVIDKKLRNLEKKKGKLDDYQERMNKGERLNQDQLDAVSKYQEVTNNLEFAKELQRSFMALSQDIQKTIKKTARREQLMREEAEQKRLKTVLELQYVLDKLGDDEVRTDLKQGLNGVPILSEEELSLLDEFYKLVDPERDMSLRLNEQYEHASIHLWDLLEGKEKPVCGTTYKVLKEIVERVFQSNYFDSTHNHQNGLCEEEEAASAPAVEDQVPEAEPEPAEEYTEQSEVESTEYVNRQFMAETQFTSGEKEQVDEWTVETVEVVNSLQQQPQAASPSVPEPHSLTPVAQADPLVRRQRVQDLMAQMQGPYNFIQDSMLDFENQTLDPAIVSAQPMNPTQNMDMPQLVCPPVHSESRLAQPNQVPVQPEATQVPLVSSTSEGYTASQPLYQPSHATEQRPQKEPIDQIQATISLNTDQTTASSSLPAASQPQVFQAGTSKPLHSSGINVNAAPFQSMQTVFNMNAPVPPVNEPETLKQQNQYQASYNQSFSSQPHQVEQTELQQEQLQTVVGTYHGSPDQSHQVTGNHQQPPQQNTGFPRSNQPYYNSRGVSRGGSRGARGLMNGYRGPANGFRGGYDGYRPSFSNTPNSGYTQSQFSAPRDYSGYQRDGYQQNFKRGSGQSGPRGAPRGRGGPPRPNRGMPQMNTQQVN
Kind of assay: ELISA using CAPRIN-1 protein immobilized on a plate. The assay is classed as binding. On the procedure: One hundred (100) μg of a human CAPRIN-1 recombinant protein produced according to Example 3 of WO2010/016526 was mixed with an MPL+TDM adjuvant (Sigma) in an amount equivalent to that of the antigen protein. The mixture was used as an antigen solution per mouse. The antigen solution was administered intraperitoneally to 6-week-old Balb/c mice (Japan SLC Inc.) and then further administered 3 times […] every week for completion of immunization. A spleen was removed on day 3 after the final immunization and then ground between two sterilized glass slides. Spleen cells were obtained by repeating the following procedure three times: washing with PBS(−) (manufactured by Nissui Pharmaceutical Co., Ltd.), centrifuging at 1500 rpm for 10 minutes, and removing supernatant. The obtained spleen cells were mixed with mouse myeloma cell SP2/0 (purchased from ATCC) at a ratio of 10:1. The PEG solution prepared by mixing 200 μl of RPMI1640 medium containing 10% FBS heated at 37° C. and 800 μl of PEG1500 (Boehringer) was added to the cells. The solution was incubated for 5 minutes for cell fusion. Centrifugation was performed at 1700 rpm for 5 minutes to remove supernatants. […] Absorbance at 450 nm and absorbance at 595 nm were measured using an absorption spectrometer. As a result, a plurality of hybridomas producing antibodies with high absorbances were selected. […]

`COc1cc([C@@H]2c3cc4c(cc3[C@@H](O[C@@H]3O[C@@H]5CO[C@@H](C)O[C@H]5[C@H](O)[C@H]3O)[C@H]3COC(=O)[C@H]23)OCO4)cc(OC)c1O` [etoposide]: the “tumor volume, assuming that the tumor volume of the negative control was 100%” value in assay [1] (high dose 15 mg/kg once every four days) is listed as 79%; in assay [1] (low dose 5 mg/kg once every four days) it was 92%.
Take `CC[C@@]1(O)C(=O)OCc2c1cc1n(c2=O)Cc2cc3c(CN(C)C)c(O)ccc3nc2-1` [topotecan]: the “tumor volume compared to that at the start of the administration” value in assay [2] (antibody 10 mg/kg, topotecan low (3 mg/kg) and high (10 mg/kg) dose) was “increased”. In addition, the “tumor volume, assuming that the tumor volume of the negative control was 100%” value was 16% in assay [2] (high dose 10 mg/kg once every four days) and 33% in assay [2] (low dose 3 mg/kg once every four days).
Consider bevacizumab, for which the PFS in assay [3] (bevacizumab combined with a chemotherapeutic versus monochemotherapy) is 6.7 months. The “OS compared with monochemotherapy” value in assay [3] (bevacizumab combined with a chemotherapeutic) is recorded as “no significant difference”.

B1: (ab): mouse monoclonal antibody against CAPRIN-1 described in WO2013/125630, heavy-chain variable region SEQ ID NO: 114, light-chain variable region SEQ ID NO: 115 (antibody, listed as Mus musculus, V domains shown)
VH: GPELVKPGASVKMSCKASGYTFTSYVMHWVKQKPGQGLEWIGYINPYNDGTKYNEKFKGKATLTSDKSSSTAYMELSSLTSEDSAVYYCARRYYYGSSGGYFDVWAQDHVRT
VL: DVQITQSPSYLAASPGETITINCRASKSISKYLAWYQEKPGKTNKLLIYSGSTLQSGIPSRFSGSGSGTDFTLTISSLEPEDFAMYYCQQHNEYPYTFGGGTKLEIKR
As to B1, the “reactivity with CAPRIN-1 protein” value with CAPRIN-1 protein was “exhibiting reactivity”.
